Results reported in US20220264878A1, “HERBICIDAL COMPOSITION CONTAINING R-TYPE PYRIDYLOXY CARBOXYLIC ACID DERIVATIVE AND USE THEREOF” (Qingdao Kingagroot Chemical Compound Co., Ltd., priority 2019, published 2022).

Assays:
Assay type in all cases: in vivo
Ipomoea purpurea = test: Post-emergence foliage spray, pot culture, fresh weight inhibition (Tables 1-48, 51-98, 101-148; 24 days); conditions: Table 98
Outline: (§1)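 Greenhouse pot plants (20–30 °C, natural light, 57–72% RH) were sprayed once on foliage at 450 kg/ha and 0.3 MPa, at the 5–6-leaf (grass) or 6–7-leaf (broadleaf) stage. Compounds were in acetone diluted with 0.1% Tween-80 water. Surviving shoots were weighed at 24 days; dead plants counted as zero.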

Setaria glauca = test: as above; conditions: Table 84
Outline: as §1

Sonchus arvensis = test: as above
Outline: as §1

[1] = system: Veronica persica^2 (collected in Zhumadian of Henan Province); test: as above
Outline: as §1

Echinochloa caudate = test: Soil sealing treatment, pot culture, fresh weight inhibition (Tables 99, 100)
Description: A method for investigating absolute number was employed, wherein whole seedlings of survival weeds were cut off with a blade along the soil surface, and the fresh weight of the weeds was weighed with an analytical balance. For dead weeds, the fresh weight thereof was zero.
Theoretical fresh weight inhibition rate of a combination of two active ingredients in each group was calculated by the Gowing method (E0=X+Y−X*Y/100), and then compared with an actually measured inhibition rate (E), thereby effect of the combination (hereafter referred to as combined effect) on weeds was evaluated: the value of E-E0, which was greater than 10%, corresponded to a synergistic effect, the value of E-E0, which was less than −10%, corresponded to an antagonistic effect, and the value of E-E0, which was from −10% to 10%, corresponded to an additional effect. […] Wherein, in the formula, X represented the fresh weight inhibition rate of the active ingredient A in a dosage of P, and Y represented the fresh weight inhibition rate of the active ingredient B in a dosage of Q.
Echinochloa crusgalli var zelayensis were collected in Huai'an of Jiangsu Province; Echinochloa caudate were collected in Pingluo of Ningxia Province; Echinochloa oryzoides were collected in Qiqiha'er of Heilongjiang Province.
The culture was carried out in a controllable sunlight greenhouse at 20 to 30° C., in natural light, and relative humidity of 57% to 72%. […] The test soil was placed quantitatively to ¾ of the pots and then watered from the bottom of the pots to completely wet the soil to saturation. The pretreated test weed seeds were uniformly sowed on the surface, then covered with 0.5-2 cm soil according to the seed size, and ready-for use 24 hours after sowing.
The technical materials were all dissolved in acetone, and diluted with an aqueous solution containing 0.1% emulsifier T-80. The dilution is performed as required.
A ratio of A to the active ingredient B and amounts thereof in each group depends on the characteristics and toxicity of the two agents, as well as the main application purpose of a corresponding formulation. Based on the pre-tests in this study, the dosage of A and the active ingredient B applied alone and in combination were shown in the tables. Water containing the solvent and emulsifier same with the above groups but free of the agents was used as a blank control.
3 pots with 30 weed seeds per pot were treated in one treatment with 4 replications per treatment.
The pots which were sowed and mulched were evenly placed on a platform with an area of 0.5 m^2, and a solution of agents was sprayed on soil surface thereof by the 3WP-2000-type walking spray tower at a dosage of […] and at a spray pressure of 0.3 MPa. After all the solution was sprayed, the valve was closed. After 30 seconds, the door of the spray tower was opened, and the nutritional bowl was taken out. Then the valve was opened, and the spray tube was cleaned by spraying 50 ml of water.
This section was same as the section 4) in the post-emergence treatment by performing foliage spray, and was not repeated herein.

SMILES: C[C@@H](Oc1nc(F)c(Cl)c(N)c1Cl)C(=O)O [Compound A1]
- Control effect (%) of A applied alone in corresponding dose (Ipomoea purpurea; 75 g a.i./ha): 37.7%
- Control effect (%) of A applied alone in corresponding dose (Ipomoea purpurea; 150 g a.i./ha (r12), r13 prints 75 + 7.5, A:B 20:1): 59.5%
- Control effect (%) of A applied alone in corresponding dose (Setaria glauca; 30 g a.i./ha): 34.7%
- Control effect (%) of A applied alone in corresponding dose (Setaria glauca; 60 g a.i./ha): 57.6%
- Control effect (%) of A applied alone in corresponding dose (Sonchus arvensis; A1 30 g a.i./ha): 33.3%
- Control effect (%) of A applied alone in corresponding dose (Sonchus arvensis; A1 60 g a.i./ha): 70.7%
- Control effect (%) of A applied alone in corresponding dose ([1]; Table 87, 75 g a.i./ha): 19.6%
- Control effect (%) of A applied alone in corresponding dose ([1]; Table 87, 150 g a.i./ha): 42.4%
- Control effect (%) of A applied alone in corresponding dose ([1]; Table 88, 75 g a.i./ha): 19.6%
- Control effect (%) of A applied alone in corresponding dose ([1]; Table 88, 150 g a.i./ha): 42.4%
- Control effect (%) of A applied alone in corresponding dose ([1]; Table 90, 75 g a.i./ha): 19.6%
- Control effect (%) of A applied alone in corresponding dose ([1]; Table 90, 150 g a.i./ha): 42.4%
- Control effect (%) of A applied alone in corresponding dose (Echinochloa caudate; Table 99, 75 g a.i./ha): 23.4%
- Control effect (%) of A applied alone in corresponding dose (Echinochloa caudate; Table 99, 150 g a.i./ha): 47.2%
- Control effect (%) of A applied alone in corresponding dose (Echinochloa caudate; Table 100, 75 g a.i./ha): 23.4%
- Control effect (%) of A applied alone in corresponding dose (Echinochloa caudate; Table 100, 150 g a.i./ha): 47.2%
